Common to all, as to assay type: physicochemical
Data set [1] can be described thus: Hygroscopic capacity: water content by Karl-Fischer titration after exposure to temperature and relative humidity. The note with it: 25 or 40 °C, 40-90% rh. On the procedure:
Coulometric Karl-Fischer titration (KFT; for determining the water content) was performed with an external drying oven (Metrohm 707 KF; operated at 140° C. with N2 purge). The samples were precisely weighed on an analytical balance (10^−5 g).
The testing was performed as described in the ICH guidelines.

A short description of data set [2]: Thermostability on storage at 25, 40 and 100 °C per ICH Q1A (R2), HPLC. On the procedure:
HPLC and GC analyses were performed according to standard protocols.
The testing was performed as described in the ICH guidelines (cf. inter alia ICH Guideline Q1A (R2)).

Data set [3] is described as follows: Particle size distribution by laser diffraction analysis (Mastersizer 2000). To be noted: wet laser diffraction in acetone; listed as Sample 1, hydrochloride. As for the experimental part: Laser diffraction analysis was performed in form of wet laser diffraction in acetone: 1750 rpm, 3×20 s cycle time, 60 s background time, without sonication, and 5 min stirring time using a Mastersizer 2000 Particle Size Analyzer (Malvern Instruments Ltd., Malvern, UK) according to the manufacturer's instructions.

Data set [4] is described as follows: Thermostability under stress conditions (storage at 100 °C for one month), HPLC. As for the experimental part:
Sample S was prepared according to the present invention, as described in Example 3 above. Sample M1 was prepared according to Example 1 of WO 2012/163508 A1, as described in Example 7 above. Finally, Sample M2 was prepared according to Example 2 of WO 2012/163508 A1, as described in Example 7 above.
The samples were exposed to a temperature of 100° C. for the time period (in weeks) indicated. The testing was performed as described in the ICH Guideline Q1A (R2) (cf. above). The amount of the degradation product (i.e. doxorubicinone) produced as well as those of various impurities (i.e., doxorubicin and four different impurities of yet unknown identity; all given in % (w/w); “n.d.”=not determined) was determined by HPCL analysis (“LT”=less than).

The mark [5] stands for this setting: 25 °C, 12 months, hydrochloride.
The mark [6] stands for this setting: 25 °C, 24 months, hydrochloride.
Where [7] appears, read: 100 °C, 0 months, hydrochloride.

Molecules are shown by their SMILES. Where a name gives a salt, the structure may show the parent alone. Marks after values point to notes of the source that are not given here.

Regarding `COc1cccc2c1C(=O)c1c(O)c3c(c(O)c1C2=O)C[C@@](O)(C(=O)CO)C[C@@H]3O[C@H]1C[C@H](N)[C@H](O)[C@H](C)O1` [Example 2, epirubicin hydrochloride], in data set [1] (data not shown), the “Hygroscopic capacity compared with the Example 1 monohydrate (TABLE 6-1), in words” value is “almost identical results”. Also, the “Thermostability compared with the Example 1 monohydrate (TABLE 5-1), in words” value in data set [2] (25, 40, 100 °C, data not shown) was “almost identical results”.
With `COc1cccc2c1C(=O)c1c(O)c3c(c(O)c1C2=O)C[C@@](O)(C(=O)CO)C[C@@H]3O[C@H]1C[C@H](N)[C@H](O)[C@H](C)O1` [Example M1, epirubicin hydrochloride], the “D(v/0.5), mean diameter based on the volume of the particles” value in data set [3] was 4.62 μm. Besides, in data set [4] (0 weeks), the “Doxorubicin (NMT 1%)” value is 0.29 % (w/w), the “Doxorubicinone (Aglycone) (NMT 1%)” value was < 0.05 % (w/w) and the “Total Impurities (NMT 2%)” value was 0.30 % (w/w). In data set [4] (1 week, hydrochloride), the “Doxorubicin (NMT 1%)” value was 0.27 % (w/w), the “Doxorubicinone (Aglycone) (NMT 1%)” value was 0.52 % (w/w), the “Total Impurities (NMT 2%)” value is listed as 1.20 % (w/w) and the “Unknown impurity RRT 1.2 (NMT 0.15%)” value is listed as 0.06 % (w/w). In data set [4] (1 week, hydrochloride), the “Unknown impurity RRT 1.6 (NMT 0.15%)” value is on record as 0.08 % (w/w) and the “Unknown impurity RRT 1.7 (NMT 0.15%)” value was 0.12 % (w/w). Also, the “Doxorubicin (NMT 1%)” value in data set [4] (2 weeks) was 0.32 % (w/w). Besides, in data set [4] (2 weeks, hydrochloride), the “Doxorubicinone (Aglycone) (NMT 1%)” value is on record as 0.57 % (w/w), the “Total Impurities (NMT 2%)” value is reported as 1.60 % (w/w), the “Unknown impurity RRT 1.1 (NMT 0.15%)” value is 0.11 % (w/w) and the “Unknown impurity RRT 1.2 (NMT 0.15%)” value is 0.13 % (w/w). In data set [4] (2 weeks, hydrochloride), the “Unknown impurity RRT 1.6 (NMT 0.15%)” value is 0.18 % (w/w) and the “Unknown impurity RRT 1.7 (NMT 0.15%)” value is on record as 0.16 % (w/w). In data set [4] (3 weeks, hydrochloride), the “Doxorubicin (NMT 1%)” value is 0.33 % (w/w), the “Doxorubicinone (Aglycone) (NMT 1%)” value was 0.61 % (w/w), the “Total Impurities (NMT 2%)” value was 1.80 % (w/w) and the “Unknown impurity RRT 1.1 (NMT 0.15%)” value is recorded as 0.14 % (w/w). Moreover, in data set [4] (3 weeks, hydrochloride), the “Unknown impurity RRT 1.2 (NMT 0.15%)” value was 0.14 % (w/w), the “Unknown impurity RRT 1.6 (NMT 0.15%)” value is 0.24 % (w/w) and the “Unknown impurity RRT 1.7 (NMT 0.15%)” value is 0.20 % (w/w). Further, the “Doxorubicin (NMT 1%)” value in data set [4] (4 weeks) is 0.33 % (w/w). In data set [4] (4 weeks, hydrochloride), the “Doxorubicinone (Aglycone) (NMT 1%)” value was 0.61 % (w/w), the “Total Impurities (NMT 2%)” value was 2.3* % (w/w), the “Total amount of unknown impurities” value was 1.36 % (w/w) and the “Unknown impurity RRT 1.1 (NMT 0.15%)” value is listed as 0.18 % (w/w). Also, in data set [4] (4 weeks, hydrochloride), the “Unknown impurity RRT 1.2 (NMT 0.15%)” value is reported as 0.18 % (w/w), the “Unknown impurity RRT 1.6 (NMT 0.15%)” value is 0.46 % (w/w) and the “Unknown impurity RRT 1.7 (NMT 0.15%)” value is listed as 0.31 % (w/w).
Take `COc1cccc2c1C(=O)c1c(O)c3c(c(O)c1C2=O)C[C@@](O)(C(=O)CO)C[C@@H]3O[C@H]1C[C@H](N)[C@H](O)[C@H](C)O1` [epirubicin hydrochloride monohydrate, epirubicin hydrochloride]: in data set [1] (up to 15 days), the “Hygroscopic capacity, in words” value is recorded as “does not exhibit any significant hygroscopic capacity”. Besides, in data set [2] (25 °C), the “Stability over a time period (overall shelf-life)” value is given as at least 5 years. In addition, the Doxorubicinone result in data set [2] (25 °C, 0 months) is listed as “LT 0.05 % (w/w)”; in data set [2] (25 °C, 1 month, hydrochloride) it was “LT 0.05 % (w/w)”; in data set [2] (25 °C, 3 months, hydrochloride), “LT 0.05 % (w/w)”; in data set [2] (25 °C, 6 months, hydrochloride), “LT 0.05 % (w/w)”; in data set [2] (setting [5]), “LT 0.05 % (w/w)”; in data set [2] (setting [6]), “LT 0.05 % (w/w)”. Also, the Doxorubicinone entry in data set [2] (25 °C, 36 months) is “LT 0.05 % (w/w)”; in data set [2] (25 °C, 48 months), “LT 0.05 % (w/w)”; in data set [2] (25 °C, 60 months), “LT 0.05 % (w/w)”; in data set [2] (40 °C, 0 months) it was “LT 0.05 % (w/w)”; in data set [2] (40 °C, 1 month, hydrochloride), “LT 0.05 % (w/w)”; in data set [2] (40 °C, 3 months, hydrochloride) it was “LT 0.05 % (w/w)”. The Doxorubicinone result was “LT 0.05* % (w/w)” in data set [2] (40 °C, 6 months, hydrochloride); “LT 0.05 % (w/w)” in data set [2] (100 °C, 0 months); “LT 0.5** % (w/w)” in data set [2] (100 °C, 1 month, hydrochloride); “less than 0.5 % (w/w)” in data set [2] (100 °C, 1 month, listed as crystalline monohydrate of epirubicin hydrochloride, hydrochloride). Besides, the “Assay (intact epirubicin hydrochloride)” value in data set [2] (25 °C, 0 months, hydrochloride) is given as 99.2 % (w/w); in data set [2] (25 °C, 1 month, hydrochloride) it was 99.4 % (w/w); in data set [2] (25 °C, 3 months, hydrochloride) it was 99.4 % (w/w); in data set [2] (25 °C, 6 months, hydrochloride), 99.2 % (w/w); in data set [2] (setting [5]), 99.0 % (w/w); in data set [2] (setting [6]), 99.4 % (w/w). For the same compound, the “Assay (intact epirubicin hydrochloride)” value in data set [2] (25 °C, 36 months) was 99.1 % (w/w); in data set [2] (25 °C, 48 months), 99.1 % (w/w); in data set [2] (25 °C, 60 months), 99.2 % (w/w); in data set [2] (40 °C, 0 months, hydrochloride), 99.2 % (w/w); in data set [2] (40 °C, 1 month, hydrochloride), 99.2 % (w/w); in data set [2] (40 °C, 3 months, hydrochloride) it was 99.1 % (w/w). Moreover, the “Assay (intact epirubicin hydrochloride)” value in data set [2] (40 °C, 6 months, hydrochloride) was 99.3 % (w/w); in data set [2] (setting [7]) it was 99.2 % (w/w); in data set [2] (100 °C, 1 month, hydrochloride) it was 98.3 % (w/w). In addition, the “Stability over a time period (thermostability)” value in data set [2] (40 °C) is at least 6 months.
For `COc1cccc2c1C(=O)c1c(O)c3c(c(O)c1C2=O)C[C@@](O)(C(=O)CO)C[C@@H]3O[C@H]1C[C@H](N)[C@H](O)[C@H](C)O1` [epirubicin hydrochloride trihydrate, epirubicin hydrochloride], the Doxorubicinone entry is “LT 0.05 % (w/w)” in data set [2] (25 °C, 0 months); 0.06 % (w/w) in data set [2] (25 °C, 1 month, hydrochloride); 0.09 % (w/w) in data set [2] (25 °C, 3 months, hydrochloride); 0.22 % (w/w) in data set [2] (25 °C, 6 months, hydrochloride); 0.42 % (w/w) in data set [2] (setting [5]); 0.62 % (w/w) in data set [2] (setting [6]). Further, the Doxorubicinone entry in data set [2] (40 °C, 0 months) is “LT 0.05 % (w/w)”; in data set [2] (40 °C, 1 month, hydrochloride), 0.22 % (w/w); in data set [2] (40 °C, 3 months, hydrochloride), 0.45 % (w/w); in data set [2] (40 °C, 6 months, hydrochloride) it was 0.78* % (w/w); in data set [2] (100 °C, 0 months), “LT 0.05 % (w/w)”; in data set [2] (100 °C, 1 month, hydrochloride), 4.7** % (w/w). Also, the “Assay (intact epirubicin hydrochloride)” value in data set [2] (25 °C, 0 months, hydrochloride) is recorded as 98.8 % (w/w); in data set [2] (25 °C, 1 month, hydrochloride), 98.7 % (w/w); in data set [2] (25 °C, 3 months, hydrochloride), 98.7 % (w/w); in data set [2] (25 °C, 6 months, hydrochloride) it was 98.4 % (w/w); in data set [2] (setting [5]), 98.5 % (w/w); in data set [2] (setting [6]) it was 98.0 % (w/w). Moreover, the “Assay (intact epirubicin hydrochloride)” value in data set [2] (40 °C, 0 months, hydrochloride) is listed as 98.8 % (w/w); in data set [2] (40 °C, 1 month, hydrochloride), 98.4 % (w/w); in data set [2] (40 °C, 3 months, hydrochloride), 98.2 % (w/w); in data set [2] (40 °C, 6 months, hydrochloride), 98.0 % (w/w); in data set [2] (setting [7]) it was 98.8 % (w/w); in data set [2] (100 °C, 1 month, hydrochloride) it was 89.5 % (w/w). Also, in data set [2] (within six months storage at 25 °C), the “Degradation on storage, in words” value was “significant degradation”.

For the origin of these results see patent publication US20190382432A1 (Synbias Pharma AG, priority 2013, published 2019).
